# Experimental data as given in ChEMBL document CHEMBL5705887, “Distinct concentration-dependent effects of the polo-like kinase 1-specific inhibitor GSK461364A, including differential effect on apoptosis” (Cancer Res, 2009).
# Activity calls are given as the source filed them. The rule behind the calls is not given here.
# Experiments:
# HeLa = test: Antiproliferative activity against human HeLa cells assessed as growth inhibition incubated for 72 hrs by celltiter-glo assay; type: functional
# SCLC = test: Antiproliferative activity against human SCLC cells assessed as viable cell signal at maximum growth inhibition incubated for 72 hrs by celltiter-glo assay relative to control; type: functional
# MDA-MB-453 = test: Antiproliferative activity against human MDA-MB-453 cells assessed as growth inhibition incubated for 72 hrs by celltiter-glo assay; type: functional
# COLO 205 [1] = test: Antitumor activity against human COLO 205 cells xenografted in Nude mouse assessed as disorganized condense chromatin at 50 to 100 mg/kg, ip measured at 24 to 48 hrs by H and E staining based analysis; type: functional, organism-based; details: dose 50-100 mg/kg, time 24-48 hrs
# MIA PaCa-2 [2] = test: Antiproliferative activity against human MIA PaCa-2 cells assessed as of viable cell signal at minimum maximum cell growth incubated for 72 hrs by celltiter-glo assay relative to control; type: functional
# NCI-H727 = test: Antiproliferative activity against human NCI-H727 cells assessed as viable cell signal at maximum growth inhibition incubated for 72 hrs by celltiter-glo assay relative to control; type: functional
# HCT-116 [3] = test: Antiproliferative activity against human HCT-116 cells assessed as of viable cell signal at minimum maximum cell growth incubated for 72 hrs by celltiter-glo assay relative to control; type: functional
# DU-145 [4] = test: Antiproliferative activity against human DU-145 cells assessed as viable cell signal at maximum growth inhibition incubated for 72 hrs by celltiter-glo assay relative to control; type: functional
# SK-BR-3 = test: Antiproliferative activity against human SK-BR-3 cells assessed as of viable cell signal at minimum maximum cell growth incubated for 72 hrs by celltiter-glo assay relative to control; type: functional
# MDA-MB-468 = test: Induction of mitotic arrest in human MDA-MB-468 cells assessed as effect on pHH3 level at 10 to 250 nmol/L incubated for 19 hrs by ELISA analysis; type: functional, cell-based; details: dose 10-250 nmol/L
# SJSA-1 = test: Antiproliferative activity against human SJSA-1 cells assessed as growth inhibition incubated for 72 hrs by celltiter-glo assay; type: functional
# Raji [5] = test: Antiproliferative activity against human Raji cells assessed as growth inhibition incubated for 72 hrs by celltiter-glo assay; type: functional
# A2780 = test: Antiproliferative activity against human A2780 cells assessed as viable cell signal at maximum growth inhibition incubated for 72 hrs by celltiter-glo assay relative to control; type: functional
# NCI-H1299 = test: Antiproliferative activity against human NCI-H1299 cells assessed as viable cell signal at maximum growth inhibition incubated for 72 hrs by celltiter-glo assay relative to control; type: functional
# COLO 205 [6] = test: Antitumor activity against human COLO 205 cells xenografted in Nude mouse assessed as increase in pHH3 level at 50 to 100 mg/kg, ip measured at 24 to 48 hrs by immunohistochemistry analysis; type: functional, organism-based; details: dose 50-100 mg/kg, time 24-48 hrs
# BXPC-3 = test: Antiproliferative activity against human BXPC-3 cells assessed as growth inhibition incubated for 72 hrs by celltiter-glo assay; type: functional
# MIA PaCa-2 [7] = test: Antiproliferative activity against human MIA PaCa-2 cells assessed as viable cell signal at maximum growth inhibition incubated for 72 hrs by celltiter-glo assay relative to control; type: functional
# COLO 205 [8] = test: Antitumor activity against human COLO 205 cells xenografted in Nude mouse assessed as tumor growth delay time at 100 mg/kg, ip administered every 2 to 4 days; type: functional; details: time 2-4 day
# [9] = Antiproliferative activity against human PL45 cells assessed as viable cell signal at maximum growth inhibition incubated for 72 hrs by celltiter-glo assay relative to control; type: functional
# THP-1 = test: Antiproliferative activity against human THP-1 cells assessed as viable cell signal at maximum growth inhibition incubated for 72 hrs by celltiter-glo assay relative to control; type: functional
# SK-OV-3 = test: Antiproliferative activity against human SK-OV-3 cells assessed as of viable cell signal at minimum maximum cell growth incubated for 72 hrs by celltiter-glo assay relative to control; type: functional
# MX1 [10] = test: Antiproliferative activity against human MX1 cells assessed as growth inhibition incubated for 72 hrs by celltiter-glo assay; type: functional
# RKO [11] = test: Antiproliferative activity against human RKO cells assessed as of viable cell signal at minimum maximum cell growth incubated for 72 hrs by celltiter-glo assay relative to control; type: functional
# HCT-116 [12] = test: Antiproliferative activity against human HCT-116 cells assessed as viable cell signal at maximum growth inhibition incubated for 72 hrs by celltiter-glo assay relative to control; type: functional
# Raji [13] = test: Antiproliferative activity against human Raji cells assessed as viable cell signal at maximum growth inhibition incubated for 72 hrs by celltiter-glo assay relative to control; type: functional
# [14] = Antiproliferative activity against human A375P cells assessed as of viable cell signal at minimum maximum cell growth incubated for 72 hrs by celltiter-glo assay relative to control; type: functional
# MX1 [15] = test: Antiproliferative activity against human MX1 cells assessed as of viable cell signal at minimum maximum cell growth incubated for 72 hrs by celltiter-glo assay relative to control; type: functional
# COLO 205 [16] = test: Antitumor activity against human COLO 205 cells xenografted in Nude mouse assessed as increase in pIk1 level at 50 to 100 mg/kg, ip measured at 24 to 48 hrs by immunohistochemistry analysis; type: functional, organism-based; details: dose 50-100 mg/kg, time 24-48 hrs
# PC-3 = test: Antiproliferative activity against human PC-3 cells assessed as viable cell signal at maximum growth inhibition incubated for 72 hrs by celltiter-glo assay relative to control; type: functional
# SK-MEL-5 = test: Antiproliferative activity against human SK-MEL-5 cells assessed as growth inhibition incubated for 72 hrs by celltiter-glo assay; type: functional
# K562 = test: Antiproliferative activity against human K562 cells assessed as growth inhibition incubated for 72 hrs by celltiter-glo assay; type: functional
# DU-145 [17] = test: Antiproliferative activity against human DU-145 cells assessed as growth inhibition incubated for 72 hrs by celltiter-glo assay; type: functional
# NCI-N87 = test: Antiproliferative activity against human NCI-N87 cells assessed as growth inhibition incubated for 72 hrs by celltiter-glo assay; type: functional
# DLD-1 = test: Antiproliferative activity against human DLD-1 cells assessed as growth inhibition incubated for 72 hrs by celltiter-glo assay; type: functional
# MDA-MB-231 = test: Antiproliferative activity against human MDA-MB-231 cells assessed as of viable cell signal at minimum maximum cell growth incubated for 72 hrs by celltiter-glo assay relative to control; type: functional
# COLO 205 [18] = test: Antitumor activity against human COLO 205 cells xenografted in Nude mouse assessed as tumor growth delay time at 50 mg/kg, ip administered for 12 days; type: functional; details: time 12 day
# HN5 = test: Antiproliferative activity against human HN5 cells assessed as viable cell signal at maximum growth inhibition incubated for 72 hrs by celltiter-glo assay relative to control; type: functional
# T47D = test: Antiproliferative activity against human T47D cells assessed as viable cell signal at maximum growth inhibition incubated for 72 hrs by celltiter-glo assay relative to control; type: functional
# RKO [19] = test: Antiproliferative activity against human RKO cells assessed as growth inhibition incubated for 72 hrs by celltiter-glo assay; type: functional
# ZR-75-1 = test: Antiproliferative activity against human ZR-75-1 cells assessed as viable cell signal at maximum growth inhibition incubated for 72 hrs by celltiter-glo assay relative to control; type: functional
smiles,measurement,setting,value
C[C@@H](Oc1cc(-n2cnc3ccc(CN4CCN(C)CC4)cc32)sc1C(N)=O)c1ccccc1C(F)(F)F [GSK-461364],GI50,HeLa,21.8 nM
same,Emax,SCLC,834%
same,GI50,MDA-MB-453,13.4 nM
same,Activity,COLO 205 [1],Active
same,Emin,MIA PaCa-2 [2],100.2%
same,Emax,NCI-H727,262%
same,Emin,HCT-116 [3],157.3%
same,Emax,DU-145 [4],500%
same,Emin,SK-BR-3,54.6%
same,Activity,MDA-MB-468,Active
same,GI50,SJSA-1,24.4 nM
same,GI50,Raji [5],25.3 nM
same,Emax,A2780,977%
same,Emax,NCI-H1299,495%
same,Activity,COLO 205 [6],Active
same,GI50,BXPC-3,23.1 nM
same,Emax,MIA PaCa-2 [7],580%
same,Time,COLO 205 [8],18 days
same,Emax,[9],267%
same,Emax,THP-1,349%
same,Emin,SK-OV-3,103.8%
same,GI50,MX1 [10],12.1 nM
same,Emin,RKO [11],218%
same,Emax,HCT-116 [12],545%
same,Emax,Raji [13],434%
same,Emin,[14],220.5%
same,Emin,MX1 [15],161.5%
same,Activity,COLO 205 [16],Active
same,Emax,PC-3,582%
same,GI50,SK-MEL-5,28.4 nM
same,GI50,K562,19.4 nM
same,GI50,DU-145 [17],24.2 nM
same,GI50,NCI-N87,21.5 nM
same,GI50,DLD-1,48.9 nM
same,Emin,MDA-MB-231,37%
same,Time,COLO 205 [18],62 days
same,Emax,HN5,812%
same,Emax,T47D,320%
same,GI50,RKO [19],62.9 nM
same,Emax,ZR-75-1,229%
